Source: patent US7998987B2, “Inhibitors of c-Met and uses thereof” (Vertex Pharmaceuticals Incorporated, priority 2005, dated 2011)
pKi: −log10 of the molar value.

Molecular target: c-Met (Homo sapiens, UniProt P08581)
Experiment: Ki determination for the inhibition of c-Met kinase activity (standard coupled enzyme system)
Type: biochemical
Conditions: coupled enzyme system, 200 μM ATP, 80 nM c-Met, 30° C.; read-out: c-Met Ki
Protocol: Ki Determination for the Inhibition of c-Met
Reactions were carried out in a solution containing 100 mM HEPES (pH 7.5), 10 mM MgCl2, 25 mM NaCl, 300 μM NADH, 1 mM DTT, and 1.5% DMSO. Final substrate concentrations in the assay were 200 μM ATP (Sigma Chemicals, St Louis, Mo.) and 10 μM polyGluTyr (Sigma Chemical Company, St. Louis). Reactions were carried out at 30° C. and 80 nM c-Met. Final concentrations of the components of the coupled enzyme system were 2.5 mM phosphoenolpyruvate, 300 μM NADH, 30 μg/ml pyruvate kinase and 10 μg/ml lactate dehydrogenase.
An assay stock buffer solution was prepared containing all of the reagents listed above with the exception of ATP and a test compound of the present invention. […] The reaction was initiated by the addition of 20 μL of ATP (final concentration 200 μM). Rates of reaction were obtained using a Molecular Devices Spectramax plate reader (Sunnyvale, Calif.) over 10 minutes at 30° C. The Ki values were determined from the rate data as a function of inhibitor concentration.

c-Met, sequence (P08581 25-1390): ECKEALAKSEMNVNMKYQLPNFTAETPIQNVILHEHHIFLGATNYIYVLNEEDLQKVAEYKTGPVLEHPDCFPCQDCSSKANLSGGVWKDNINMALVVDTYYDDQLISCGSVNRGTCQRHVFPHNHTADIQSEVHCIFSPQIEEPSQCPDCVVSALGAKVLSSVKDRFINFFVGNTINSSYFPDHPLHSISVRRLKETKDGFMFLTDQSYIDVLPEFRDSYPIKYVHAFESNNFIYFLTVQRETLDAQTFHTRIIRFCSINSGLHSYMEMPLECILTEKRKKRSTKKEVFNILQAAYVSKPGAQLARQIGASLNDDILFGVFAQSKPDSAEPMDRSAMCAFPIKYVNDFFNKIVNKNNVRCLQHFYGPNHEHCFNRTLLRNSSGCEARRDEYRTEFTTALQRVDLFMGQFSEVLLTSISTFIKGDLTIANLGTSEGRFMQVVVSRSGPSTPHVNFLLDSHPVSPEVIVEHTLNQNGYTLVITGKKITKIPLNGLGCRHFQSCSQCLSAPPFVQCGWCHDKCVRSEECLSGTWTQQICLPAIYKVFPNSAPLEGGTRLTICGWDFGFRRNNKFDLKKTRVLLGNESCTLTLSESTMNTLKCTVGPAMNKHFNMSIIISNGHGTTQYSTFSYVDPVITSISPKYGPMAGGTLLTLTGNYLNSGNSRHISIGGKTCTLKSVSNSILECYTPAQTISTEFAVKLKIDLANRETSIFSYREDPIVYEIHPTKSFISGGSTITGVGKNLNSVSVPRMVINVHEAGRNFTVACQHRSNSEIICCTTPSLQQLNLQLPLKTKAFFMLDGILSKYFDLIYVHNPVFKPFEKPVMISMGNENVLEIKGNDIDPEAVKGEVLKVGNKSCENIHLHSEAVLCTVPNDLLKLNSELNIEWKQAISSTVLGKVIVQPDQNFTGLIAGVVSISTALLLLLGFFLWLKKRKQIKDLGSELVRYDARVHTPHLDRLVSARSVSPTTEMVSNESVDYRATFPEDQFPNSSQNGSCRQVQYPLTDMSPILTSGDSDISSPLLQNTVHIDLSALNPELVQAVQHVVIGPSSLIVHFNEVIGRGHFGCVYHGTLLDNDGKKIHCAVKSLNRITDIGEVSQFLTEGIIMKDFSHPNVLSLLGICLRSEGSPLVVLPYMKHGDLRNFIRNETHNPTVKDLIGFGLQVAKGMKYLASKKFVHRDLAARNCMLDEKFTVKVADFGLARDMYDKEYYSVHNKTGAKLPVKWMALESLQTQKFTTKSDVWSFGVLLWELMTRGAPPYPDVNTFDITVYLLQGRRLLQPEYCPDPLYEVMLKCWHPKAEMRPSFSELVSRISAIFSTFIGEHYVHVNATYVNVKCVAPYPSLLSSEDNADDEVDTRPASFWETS

SMILES | pKi
CS(=O)(=O)c1ccc(Cc2nnc3ccc(Nc4cccc(Cl)c4)nn23)cc1 [Compound 364] | < 5.70
COc1ccc(OCc2nnc3ccc(Nc4cccc(Cl)c4)nn23)c(N)c1 [Compound 434] | 5.70 to 7.00
O=C(N[C@@H](Cc1ccccc1)C1=Nn2c(Cc3ccc(O)cc3)nnc2SC1)OCc1ccccc1 [Compound 537] | < 5.70
Clc1cccc(Nc2ccc3nnc(Cc4ccccc4)n3n2)c1 [Compound 315] | < 5.70
Oc1cccc2ccc(NCc3nnc4ccc(Nc5cccc(Cl)c5)nn34)nc12 [Compound 454] | < 5.70
CC1CC(Nc2ccc3nnc(Cc4ccc(O)cc4)n3n2)CC(C)(C)C1 (stereo not drawn) [Compound 370] | > 7.00
Oc1ccc(Cc2nnc3n2N=C(c2ccc4c(c2)OCCO4)CS3)cc1 [Compound 533] | > 7.00
COc1ccc(NCc2nnc3ccc(Nc4cccc(Cl)c4)nn23)cc1 [Compound 350] | < 5.70
Clc1cccc(Nc2ccc3nnc(CNc4ccncc4)n3n2)c1 [Compound 386] | < 5.70
Cc1nc2cc(OCc3nnc4ccc(Nc5cccc(Cl)c5)nn34)ccc2s1 [Compound 431] | < 5.70
Clc1cccc(Nc2ccc3nnc(Cn4ccc5cncnc54)n3n2)c1 [Compound 463] | < 5.70
COc1cc(OC)c(NCc2nnc3ccc(Nc4cccc(Cl)c4)nn23)cc1Cl [Compound 345] | < 5.70
CC(=O)N[C@@H]1CCCC[C@@H]1Nc1ccc2nnc([C@@H](C)c3ccc(O)cc3)n2n1 [Compound 444] | 5.70 to 7.00
C[C@@H](c1ccc(O)cc1)c1nnc2ccc(Nc3ccc(F)nc3)nn12 [Compound 510] | 5.70 to 7.00
C[C@@H](c1ccc(O)cc1)c1nnc2ccc(Nc3ccnc(Cl)c3)nn12 [Compound 506] | > 7.00
Oc1ccc(Cc2nnc3n2N=C(c2ccsc2)CS3)cc1 [Compound 541] | > 7.00
COc1cccc(Nc2ccc3nnc(Cc4ccc(O)c(F)c4)n3n2)c1 [Compound 293] | 5.70 to 7.00
Oc1cccc(OCc2nnc3ccc(Nc4cccc(Cl)c4)nn23)c1 [Compound 409] | 5.70 to 7.00
O=C(Cc1nnc2ccc(Nc3cccc(Cl)c3)nn12)c1cccnc1 [Compound 316] | < 5.70
CN1C2CCC1CC(Nc1ccc3nnc(Cc4ccc(O)cc4)n3n1)C2 (stereo not drawn) [Compound 417] | < 5.70
Clc1cccc(Nc2ccc3nnc(COc4cccc(Cl)n4)n3n2)c1 [Compound 376] | < 5.70
Oc1cccc(NCc2nnc3ccc(Nc4cccc(Cl)c4)nn23)c1 [Compound 338] | 5.70 to 7.00
Oc1ccc(OCc2nnc3ccc(Nc4cccc(Cl)c4)nn23)cc1 [Compound 391] | 5.70 to 7.00

SMILES | pKi
COc1ccc(NCc2nnc3ccc(Nc4cccc(Cl)c4)nn23)cc1OC [Compound 337] | < 5.70
Cc1ccc(Cl)cc1Nc1ccc2nnc(Cc3ccc(O)cc3)n2n1 [Compound 358] | > 7.00
CS(=O)(=O)Nc1ccc(Cc2nnc3ccc(Nc4cccc(Cl)c4)nn23)cc1 [Compound 369] | < 5.70
Fc1ccc(NCc2nnc3ccc(Nc4cccc(Cl)c4)nn23)c(Cl)c1 [Compound 342] | < 5.70
NC(=O)c1ccc(NCc2nnc3ccc(Nc4cccc(Cl)c4)nn23)nc1 [Compound 455] | < 5.70
C[C@@H](c1ccc(O)cc1)c1nnc2ccc(Nc3ccc(Cl)nn3)nn12 [Compound 512] | 5.70 to 7.00
Fc1ccc(NCc2nnc3ccc(Nc4cccc(Cl)c4)nn23)c(F)c1 [Compound 344] | < 5.70
Cc1nnc(Nc2ccc3nnc([C@@H](C)c4ccc(O)cc4)n3n2)s1 [Compound 500] | < 5.70
Oc1ccc(Cc2nnc3n2N=C(c2ccccc2)CS3)cc1 [Compound 522] | > 7.00
Oc1ccccc1SCc1nnc2ccc(Nc3cccc(Cl)c3)nn12 [Compound 406] | < 5.70
C[C@@H](c1ccc(O)cc1)c1nnc2ccc(Sc3nc4ccccc4[nH]3)nn12 [Compound 507] | > 7.00
COC(=O)c1ccc(OCc2nnc3ccc(Nc4cccc(Cl)c4)nn23)c(N)c1 [Compound 433] | > 7.00
Cc1cc(C)cc(Nc2ccc3nnc(Cc4ccc(O)c(Cl)c4)n3n2)c1 [Compound 296] | > 7.00
Clc1cccc(Nc2ccc3nnc(Cn4nc(Cl)c5ccccc54)n3n2)c1 [Compound 486] | < 5.70
CC(=O)Nc1cccc(OCc2nnc3ccc(Nc4cccc(Cl)c4)nn23)c1 [Compound 468] | 5.70 to 7.00
O=C(Cc1ccccc1)N1CCC(Nc2ccc3nnc(Cc4ccc(O)cc4)n3n2)CC1 [Compound 325] | 5.70 to 7.00
CCn1nccc1Nc1ccc2nnc([C@@H](C)c3ccc(O)cc3)n2n1 [Compound 497] | 5.70 to 7.00
O=C(Nc1ccc2nnc(Cc3ccc(O)cc3)n2n1)C1CCCCC1 [Compound 399] | < 5.70
Clc1cccc(Nc2ccc3nnc(Cc4c[nH]c5ccccc45)n3n2)c1 [Compound 460] | < 5.70
C[C@@H](c1ccc(O)cc1)c1nnc2ccc(Nc3cc(Cl)cnc3Cl)nn12 [Compound 509] | > 7.00
Oc1ccc(Cc2nnc3n2N=C(c2cccs2)CS3)cc1 [Compound 543] | > 7.00
O=C(Nc1ccc2nnc(Cc3ccc(O)cc3)n2n1)c1ccccc1 [Compound 397] | < 5.70
Clc1cccc(Nc2ccc3nnc(Cc4ccc5c(c4)CCO5)n3n2)c1 [Compound 355] | > 7.00

Same assay, conditions: coupled enzyme system, 200 μM ATP, 10 μM polyGluTyr, 80 nM c-Met, 30° C.; read-out: c-Met Ki

SMILES | pKi
Oc1ccc(Cc2nnc3ccc(N[C@@H]4CCOC4)nn23)cc1 [Compound 274] | 5.70 to 7.00
O=C(Nc1cccc(Cl)c1)Nc1nn2c(Cc3ccc(O)cc3)nnc2s1 [Compound 112] | < 5.70
Oc1cccc(Cc2nnc3sc(Nc4cccc(F)c4F)nn23)c1 [Compound 123] | 5.70 to 7.00
Oc1ccc(Cc2nnc3ccc(NCCN4CCOCC4)nn23)cc1 [Compound 204] | < 5.70
CC(c1ccc(O)cc1)c1nnc2sc(Nc3cccc(F)c3F)nn12 (stereo not drawn) [Compound 101] | > 7.00
Oc1ccc(Cc2nnc3ccc(N[C@@H]4C[C@H]4c4ccccc4)nn23)cc1 [Compound 192] | < 5.70
O=c1ccn(Cc2nnc3ccc(-c4ccccc4)nn23)cc1 [Compound 218] | < 5.70
c1ccc(-c2ccc3nnc(CNc4ccncc4)n3n2)cc1 [Compound 211] | < 5.70
Oc1ccc(Cc2nnc3sc(Nc4cccc(Cl)c4Cl)nn23)cc1 [Compound 45] | > 7.00
Nc1nn2c(Cc3ccc(O)cc3)nnc2s1 [Compound 7] | 5.70 to 7.00
FC(F)(F)c1cccc(Nc2nn3c(Cn4ccc5ncccc54)nnc3s2)c1 [Compound 136] | > 7.00
Oc1ccc(CCc2nnc3sc(Nc4cccc(Cl)c4F)nn23)cc1 [Compound 102] | 5.70 to 7.00
CN(C)c1nn2c(Cc3ccc(O)cc3)nnc2s1 [Compound 41] | < 5.70
COC(=O)c1cccc(Nc2nn3c(Cc4ccc(O)cc4)nnc3s2)c1 [Compound 61] | > 7.00
CC(C)CC(C)Nc1ccc2nnc(Cc3ccc(O)cc3)n2n1 (stereo not drawn) [Compound 279] | 5.70 to 7.00
COc1ccc(Nc2nn3c(C(C)c4ccc(O)cc4)nnc3s2)cc1 (stereo not drawn) [Compound 40] | > 7.00
COc1ccccc1Nc1nn2c(Cc3ccc(O)cc3)nnc2s1 [Compound 29] | 5.70 to 7.00
COc1ccc(Cc2nnc3ccc(Nc4cccc(CCO)c4)nn23)cc1 [Compound 266] | 5.70 to 7.00
Cc1cccc(Nc2nn3c(Cc4ccc(O)cc4)nnc3s2)c1 [Compound 44] | > 7.00

SMILES | pKi
COc1cccc(Nc2ccc3nnc(Cc4ccc5c(c4)OCO5)n3n2)c1 [Compound 243] | 5.70 to 7.00
COc1ccc(Cc2nnc3ccc(Nc4cc(F)cc(F)c4)nn23)cc1 [Compound 252] | > 7.00
Oc1cccc(CCc2nnc3sc(Nc4cccc(F)c4)nn23)c1 [Compound 95] | < 5.70
NC(=O)C1CCCN(c2ccc3nnc(Cc4ccc(O)cc4)n3n2)C1 (stereo not drawn) [Compound 179] | < 5.70
COc1cc(Cc2nnc3sc(Nc4cccnc4)nn23)ccc1O [Compound 51] | < 5.70
CC(c1ccc(O)cc1)c1nnc2sc(Nc3cccc(C(F)(F)F)c3)nn12 (stereo not drawn) [Compound 138] | > 7.00
Oc1cccc(CCc2nnc3sc(Nc4cccc(F)c4F)nn23)c1 [Compound 121] | < 5.70
Oc1ccc(Cc2nnc3sc(Nc4cc(F)cc(F)c4)nn23)cc1Cl [Compound 104] | > 7.00
CC(O)c1cccc(Nc2ccc3nnc(Cc4ccc5c(c4)OCO5)n3n2)c1 (stereo not drawn) [Compound 258] | 5.70 to 7.00
Oc1ccc(Cc2nnc3sc(NCc4ccccc4)nn23)cc1 [Compound 8] | 5.70 to 7.00
CC1CCCC(Nc2ccc3nnc(Cc4ccc(O)cc4)n3n2)C1C (stereo not drawn) [Compound 270] | 5.70 to 7.00
CC1CCC(Nc2ccc3nnc(Cc4ccc(O)cc4)n3n2)CC1 (stereo not drawn) [Compound 271] | 5.70 to 7.00
Oc1ccc(Cc2nnc3ccc(Nc4cccc(F)c4)nn23)cc1Cl [Compound 219] | > 7.00
CC(c1ccc(O)cc1)c1nnc2sc(Nc3cc(F)cc(F)c3)nn12 (stereo not drawn) [Compound 133] | > 7.00
Oc1ccc(Cc2nnc3sc(Nc4ccccc4Cl)nn23)cc1F [Compound 79] | 5.70 to 7.00
COc1ccc(NC(=O)Nc2nn3c(Cc4ccc(O)cc4)nnc3s2)cc1 [Compound 115] | < 5.70
CC(c1nnc2sc(Nc3cccc(Cl)c3)nn12)n1ccc2ncccc21 (stereo not drawn) [Compound 161] | > 7.00
Fc1ccc(Cc2nnc3sc(Nc4cccc(Cl)c4)nn23)cc1 [Compound 171] | > 7.00
COc1ccc(Cc2nnc3ccc(Nc4cccc(Cl)c4)nn23)cc1 [Compound 238] | > 7.00
